Reference: patent publication US20240002380A1, “REV-ERB AGONISTS” (Saint Louis University, priority 2020, published 2024)
Like-named read-outs stand apart in the source and are kept apart here.

Assays:
REV-ERBα = REV-ERBα (Homo sapiens (Human), UniProt P20393); experiment: FRET assay for REV-ERB ligands (REV-ERBα LBD / NCoR ID2 peptide interaction); type: biochemical; settings: TR-FRET, His-tagged REV-ERBα LBD, fluorescein NCoR ID2 peptide; read-out: RevErbα Inhibition IC50
Method: (§1) Example A: FRET Assay for REV-ERB Ligands
(§2) The capacity for compounds to function as ligands for either REV-ERBα or REV-ERBβ was assessed using a fluorescent resonance energy transfer assay that detects the interaction between these receptors and the Nuclear Receptor Corepressor (NCoR) protein (the ID2 corepressor interaction domain peptides is used). This interaction is known to be ligand dependent and thus this assay that can detect an alteration of the affinity of these two proteins is able to detect ligands. The His-tagged ligand binding domain (LBD) of either REV-ERBα or REV-ERBβ and fluorescein labeled NCoR ID2 peptide (Life Technologies #PV4624) is used in these assays. The His-tagged LBDs were expressed in E. coli (amino acids 281-614 REV-ERBα and 381-579 REV-ERBβ) and labeled with a Terbium (Tb) labeled anti-His antibody (Life Technologies #PV5895). The assay buffer was PBS (phosphate buffered saline) with 5 mM DTT (dithiothreitol). The final concentration of various reagents in the assay are: REV-ERB LBD (either isoform) [5 nM], Fluorescein labeled NCoR ID2 peptide [250 nM], Tb labeled anti-his antibody [10 nM], dimethylsulfoxide [1%] and test compound [varying concentrations]. The assay was performed in Corning NBS black 384-well plates in a total volume of 20 μl. The assay plate was incubated for 1 hour at room temperature protected from light and then TR-FRET was assessed on a Biotek plate reader with the following excitation/emission pairs (340 nm/495 nm and 340 nm/520 nm. The 520 nm/495 nm emission signal ratio was used as an indicator of the degree of interaction between the LBD and NCoR peptide and EC50's were calculated using GraphPad Prizm software.

REV-ERBβ = REV-ERBβ (Homo sapiens (Human), UniProt Q14995); experiment: FRET assay for REV-ERB ligands (REV-ERBβ LBD / NCoR ID2 peptide interaction); type: biochemical; settings: TR-FRET, His-tagged REV-ERBβ LBD, fluorescein NCoR ID2 peptide; read-out: RevErbβ Inhibition IC50
Sequence of REV-ERBβ (Q14995 381-579): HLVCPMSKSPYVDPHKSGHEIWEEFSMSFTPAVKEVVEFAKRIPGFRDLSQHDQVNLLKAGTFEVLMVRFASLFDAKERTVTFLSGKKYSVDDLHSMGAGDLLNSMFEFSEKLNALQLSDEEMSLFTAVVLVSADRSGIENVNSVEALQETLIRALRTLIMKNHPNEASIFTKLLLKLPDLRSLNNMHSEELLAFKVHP
Method: as §1, §2

[1] = Plasma pharmacokinetics after intraperitoneal injection in mice; type: in vivo; settings: mouse, 5 mg/kg IP; for Vd/F: read-out: Vz/F
Method: Example B: Pharmacokinetics of Selected Compounds
Mice were injected intraperitoneally with (5 mg/kg) of the compound of Example 71 or Example 78 and plasma samples were taken at intervals of […], 0.25 hr, 0.5 hr. 1.0 hr, 3.0 hr, and 6.0 hr post-administration in order to analyze the pharmacokinetic profile of these compounds. The mean plasma content for male and for female mice at these time points post-injection are shown for Example 71 in FIG. 1A and Table 3, and for Example 78, in FIG. 1B and Table 4.

[2] = system: senescence accelerated mouse P8 (SAMP8) mouse model; settings: SAMP8 mice, AD-like pathology; cited from earlier work

Sequence of REV-ERBα (P20393 281-614): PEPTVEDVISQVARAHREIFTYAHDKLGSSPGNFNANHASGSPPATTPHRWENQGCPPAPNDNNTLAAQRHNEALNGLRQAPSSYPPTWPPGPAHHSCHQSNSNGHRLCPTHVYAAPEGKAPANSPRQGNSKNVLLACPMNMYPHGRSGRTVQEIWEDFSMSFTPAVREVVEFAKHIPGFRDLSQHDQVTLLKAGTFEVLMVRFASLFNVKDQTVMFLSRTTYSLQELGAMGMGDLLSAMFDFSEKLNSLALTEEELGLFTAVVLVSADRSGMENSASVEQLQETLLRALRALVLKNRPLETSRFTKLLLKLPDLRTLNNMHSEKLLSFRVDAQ

Question: With Cn1cnc2ccc(Oc3ccccc3-c3ccccc3)nc21 [Example 3, 5-([1,1′-biphenyl]-2-yloxy)-3-methyl-3H-imidazo[4,5-b]pyridine] as the compound, how does the IC50 (REV-ERBα) read?
Answer: 250 to 1000 nM

Question: And the IC50 (REV-ERBβ)?
Answer: ≤ 250 nM

Question: Which IC50 (REV-ERBβ) does the source give for Cc1cccc(-c2ccccc2Oc2ccc3ncn(C)c3n2)c1 [Example 4, 3-methyl-5-(3′-methylbiphenyl-2-yloxy)-3H-imidazo[4,5-b]pyridine] here?
Answer: ≤ 250 nM

Question: With Cn1cnc2ccc(Oc3ccccc3-c3cccc(F)c3)nc21 [Example 5, 5-(3′-fluorobiphenyl-2-yloxy)-3-methyl-3H-imidazo[4,5-b]pyridine] as the compound, how does the IC50 (REV-ERBα) read?
Answer: ≤ 250 nM

Question: And the IC50 (REV-ERBβ)?
Answer: 250 to 1000 nM

Question: With Cn1cnc2ccc(Oc3ccccc3-c3cccnc3)nc21 [Example 6, 3-methyl-5-(2-(pyridin-3-yl)phenoxy)-3H-imidazo[4,5-b]pyridine] as the compound, how does the IC50 (REV-ERBα) read?
Answer: ≤ 250 nM

Question: For Cn1ncc2cnc(Oc3ccccc3-c3cccnc3)nc21 [Example 10, 1-methyl-6-(2-(pyridin-3-yl)phenoxy)-1H-pyrazolo[3,4-d]pyrimidine], which IC50 (REV-ERBα) is on record?
Answer: ≤ 250 nM

Question: What about the IC50 (REV-ERBβ) of the same compound?
Answer: ≤ 250 nM

Question: For Cc1cccc(-c2ccccc2Oc2ccc3cnn(C)c3n2)c1 [Example 13, 1-methyl-6-(3′-methylbiphenyl-2-yloxy)-1H-pyrazolo[3,4-b]pyridine], which IC50 (REV-ERBα) is on record?
Answer: > 1000 nM

Question: With Cn1ncc2ccc(Oc3ccccc3-c3cccc(F)c3)nc21 [Example 14, 6-(3′-fluorobiphenyl-2-yloxy)-1-methyl-1H-pyrazolo[3,4-b]pyridine] as the compound, how does the IC50 (REV-ERBα) read?
Answer: 250 to 1000 nM

Question: For CNc1cccc(-c2ccccc2Oc2ncc3ccn(C)c3n2)c1 [Example 17, N-methyl-2′-(7-methyl-7H-pyrrolo[2,3-d]pyrimidin-2-yloxy)biphenyl-3-amine], which IC50 (REV-ERBα) is on record?
Answer: ≤ 250 nM

Question: For Cc1nn(C)c2cnc(Oc3ccccc3-c3ccccc3)nc12 [Example 21, 5-([1,1′-biphenyl]-2-yloxy)-1,3-dimethyl-1H-pyrazolo[4,3-d]pyrimidine], which IC50 (REV-ERBα) is on record?
Answer: > 1000 nM

Question: With c1ccc(-c2ccccc2Oc2ncc3cnccc3n2)cc1 [Example 22, 2-(biphenyl-2-yloxy)pyrido[4,3-d]pyrimidine] as the compound, how does the IC50 (REV-ERBα) read?
Answer: ≤ 250 nM

Question: Which IC50 (REV-ERBα) does the source give for c1ccc(-c2ccccc2Oc2ccc3cnccc3n2)cc1 [Example 24, 2-(biphenyl-2-yloxy)-1,6-naphthyridine] here?
Answer: ≤ 250 nM

Question: For FC(F)(F)c1cc(Oc2ccccc2-c2ccccc2)nc2ccccc12 [Example 34, 2-([1,1′-biphenyl]-2-yloxy)-4-(trifluoromethyl)quinoline], which IC50 (REV-ERBβ) is on record?
Answer: > 1000 nM

Question: Which IC50 (REV-ERBα) does the source give for COc1ccc2c(C(F)(F)F)cc(Oc3ccccc3-c3ccccn3)nc2c1 [Example 36, 7-methoxy-2-(2-(pyridin-2-yl)phenoxy)-4-(trifluoromethyl)quinoline] here?
Answer: ≤ 250 nM

Question: For FC(F)(F)c1ccccc1Oc1ccc2ccncc2n1 [Example 44, 2-(2-(trifluoromethyl)phenoxy)-1,7-naphthyridine], which IC50 (REV-ERBβ) is on record?
Answer: ≤ 250 nM

Question: Which IC50 (REV-ERBα) does the source give for c1ccc(-c2ccccc2Oc2ccc3cnccc3n2)nc1 [Example 45, 2-(2-(pyridin-2-yl)phenoxy)-1,6-naphthyridine] here?
Answer: > 1000 nM

Question: And the IC50 (REV-ERBβ)?
Answer: ≤ 250 nM

Question: For FC(F)(F)c1ccccc1Oc1ccc2cnccc2n1 [Example 46, 2-(2-(trifluoromethyl)phenoxy)-1,6-naphthyridine], which IC50 (REV-ERBα) is on record?
Answer: 250 to 1000 nM

Question: And the IC50 (REV-ERBβ)?
Answer: > 1000 nM

Question: With c1ccc(C2CCCCC2)c(Oc2ccc3ccncc3n2)c1 [Example 48, 2-(2-cyclohexylphenoxy)-1,7-naphthyridine] as the compound, how does the IC50 (REV-ERBα) read?
Answer: ≤ 250 nM

Question: For c1ccc(C2CCCCC2)c(Oc2ccc3cnccc3n2)c1 [Example 49, 2-(2-cyclohexylphenoxy)-1,6-naphthyridine], which IC50 (REV-ERBα) is on record?
Answer: 250 to 1000 nM

Question: With c1ccc(-c2cccc(Oc3ccc4ccncc4n3)c2)cc1 [Example 51, 2-([1,1′-biphenyl]-3-yloxy)-1,7-naphthyridine] as the compound, how does the IC50 (REV-ERBβ) read?
Answer: > 1000 nM

Question: For c1ccc2c(Oc3ccc4ccncc4n3)cccc2c1 [Example 54, 2-(naphthalen-1-yloxy)-1,7-naphthyridine], which IC50 (REV-ERBα) is on record?
Answer: ≤ 250 nM

Question: With c1ccc2c(Oc3ccc4cnccc4n3)cccc2c1 [Example 56, 2-(naphthalen-1-yloxy)-1,6-naphthyridine] as the compound, how does the IC50 (REV-ERBα) read?
Answer: > 1000 nM

Question: What about the IC50 (REV-ERBβ) of the same compound?
Answer: > 1000 nM

Question: For c1cc2ccc(OC3CCCCC3)nc2cn1 [Example 57, 2-(cyclohexyloxy)-1,7-naphthyridine], which IC50 (REV-ERBα) is on record?
Answer: > 1000 nM

Question: Which IC50 (REV-ERBα) does the source give for c1ccc(-c2ccccc2Oc2ccc3ccncc3n2)cc1 [Example 59, 2-([1,1′-biphenyl]-2-yloxy)-1,7-naphthyridine] here?
Answer: ≤ 250 nM

Question: And the IC50 (REV-ERBβ)?
Answer: ≤ 250 nM

Question: With COc1ccc2c(C(F)(F)F)cc(SCC(=O)NCCc3ccc(F)cc3)nc2c1 [Example 62, N-(4-fluorophenethyl)-2-((7-methoxy-4-(trifluoromethyl)quinolin-2-yl)thio)acetamide] as the compound, how does the IC50 (REV-ERBα) read?
Answer: ≤ 250 nM

Question: With c1ccc(-c2ccccc2Oc2ccc3ncccc3n2)cc1 [Example 68, 2-([1,1′-biphenyl]-2-yloxy)-1,5-naphthyridine] as the compound, how does the IC50 (REV-ERBα) read?
Answer: 250 to 1000 nM

Question: And the IC50 (REV-ERBβ)?
Answer: > 1000 nM

Question: For c1ccc2cc(Oc3ccc4ccncc4n3)ccc2c1 [Example 70, 2-(naphthalen-2-yloxy)-1,7-naphthyridine], which IC50 (REV-ERBα) is on record?
Answer: ≤ 250 nM

Question: For Cc1cc(C)c(Oc2ccc3cnccc3n2)c(-c2ccccc2)c1 [Example 71, 2-((3,5-dimethyl-[1,1′-biphenyl]-2-yl)oxy)-1,6-naphthyridine], which AUC(0-inf) ([1]; female mice) is on record?
Answer: 172 ng·h/mL

Question: And the AUC(0-t) ([1]; female mice)?
Answer: 169 ng·h/mL

Question: What about the CL/F ([1]; female mice) of the same compound?
Answer: 484 mL/min/kg

Question: And the Cmax ([1]; female mice)?
Answer: 345 ng/mL

Question: And the Tmax ([1]; female mice)?
Answer: 4.98 min

Question: And the half-life ([1]; female mice)?
Answer: 31.2 min

Question: What about the Vd/F ([1]; female mice) of the same compound?
Answer: 21.9 L/kg

Question: What about the AUC(0-inf) ([1]; male mice) of the same compound?
Answer: 225 ng·h/mL

Question: What about the AUC(0-t) ([1]; male mice) of the same compound?
Answer: 222 ng·h/mL

Question: What about the CL/F ([1]; male mice) of the same compound?
Answer: 371 mL/min/kg

Question: What about the Cmax ([1]; male mice) of the same compound?
Answer: 317 ng/mL

Question: What about the Tmax ([1]; male mice) of the same compound?
Answer: 4.98 min

Question: What about the half-life ([1]; male mice) of the same compound?
Answer: 28.2 min

Question: And the Vd/F ([1]; male mice)?
Answer: 15.2 L/kg

Question: Which AUC(0-t) ([1]; Table 4, female mice) does the source give for COc1ccc(-c2ccc(C(F)(F)F)cc2Oc2ccc3cnccc3n2)cc1 [Example 78, 2-((4′-methoxy-4-(trifluoromethyl)-[1,1′-biphenyl]-2-yl)oxy)-1,6-naphthyridine] here?
Answer: 137 ng·h/mL

Question: And the Cmax ([1]; Table 4, female mice)?
Answer: 269 ng/mL

Question: And the Tmax ([1]; Table 4, female mice)?
Answer: 15 min

Question: What about the AUC(0-t) ([1]; Table 4, male mice) of the same compound?
Answer: 343 ng·h/mL

Question: What about the CL/F ([1]; Table 4, male mice) of the same compound?
Answer: 238 mL/min/kg

Question: What about the Cmax ([1]; Table 4, male mice) of the same compound?
Answer: 330 ng/mL

Question: And the Tmax ([1]; Table 4, male mice)?
Answer: 15 min

Question: What about the half-life ([1]; Table 4, male mice) of the same compound?
Answer: 33 min

Question: And the Vd/F ([1]; Table 4, male mice)?
Answer: 11.3 L/kg

Question: Which “reversing the cognitive decline” value [2] does the source give for CCOC(=O)N1CCC(CN(Cc2ccc(Cl)cc2)Cc2ccc([N+](=O)[O-])s2)C1 (stereo not shown) [SR9009] here?
Answer: effective in reversing the cognitive decline
